Key:
[1] = Liver microsomal metabolic stability, mouse; type: in vitro ADME; details: mouse liver microsomes, NADPH, 37° C.
Experimental: (§1) Under the condition of ice bath, 1 mg of human or Mouse liver microparticles was add to PBS (1 mL) buffer, then NADPH (20 μL) was added, and incubated at 37° C. for 5 min. 10 μL of the compound to be tested was added, then suck several times with a pipette and divide into 3 aliquots of 330 μL; each and then samples were taken at 0, 15, 30, 60 and 120 min respectively. 10 μL of the solution was taken with a pipette each time and added to 490 μL of the solution containing the internal standard compound. The resulting solution was vortexed and then placed on ice, and then sampling at another time point continues. All samples were centrifuged at 10,000 rpm for 10 min, and the supernatant was taken for LC/MS testing. The metabolism of the compound in liver microsomes was calculated based on the peak area.

Mouse absorption test = type: in vivo; details: mice, intragastric 10 mg/kg, plasma
Experimental: (§2) Experimental method: mice were used as experimental animals, and drugs were administered intragastrically at 10 mg/kg (5% DMSO+5% Solutol+90% saline). The blood collection time points for intragastric administration were 0.25, 0.5, 1, 2, 4, 6, 8, and 24 h. 0.3 ml of whole blood was taken, and 0.1 ml of plasma was taken after centrifugation and analyzed by LC-MS.

OCI-LY10 cells = assay: Inhibitory activity on OCI-LY10 cell proliferation (MTS); type: cell-based; details: Homo sapiens, 72 h or 168 h
Experimental: (§3) The anti-tumor efficacy of the compounds was tested by measuring their inhibitory effects on OCI-LY10 and Mino cell proliferation. OCI-LY10 and Mino cells were cultured in RPM-1640 medium containing […] fetal calf serum. OCI-LY10 and Mino cells were digested, inoculated in a 96-well plate at a cell concentration of 10000 cells/well, and incubated overnight at 37° C., 5% CO2. Compounds of different concentrations (1000 nM, 4-fold dilution, 8 points) were added to the 96-well plate and incubated for 72 h or 168 h at 37° C. and […], and then 20 μL of MTS was added to each well. After incubation for 2 h, 25 μl of 10% SDS was added to each well to terminate the reaction. The absorbance at 490 nm and 650 nm were measured with a microplate reader. IC50 was calculated using GraphPad Prism 5.0.

[2] = Liver microsomal metabolic stability, human; type: in vitro ADME; details: human liver microsomes, NADPH, 37° C.
Experimental: as §1

BTK = molecular target: T1, BTK (Homo sapiens, UniProt Q06187); assay: BTK degradation activity test in Mino cells (Westernblot or Elisa); type: cell-based; details: 24-72 h incubation
T1 construct: endogenous in cells; host or cells: Mino cells
Experimental: The Mino cell line cells are 0.5˜1 million/well in 6-well plates. The compounds are diluted to different concentrations, added to the plate, and after 24-72 h of incubation, the cells are collected. After the cells were lysed, the total protein concentration in each well was determined with a BCA kit. The amount of BTK is determined using the Westernblot or Elisa method.

Mino cells = assay: Inhibitory activity on Mino cell proliferation (MTS); type: cell-based; details: Homo sapiens, 72 h or 168 h
Experimental: as §3

Rat absorption test = type: in vivo; details: SD rats, intragastric 10 mg/kg, plasma
Experimental: as §2, with “SD Rats” for “Experimental method: mice”, “Solutol+90% normal” for “Solutol+90%”

T1 sequence (Q06187 whole entry): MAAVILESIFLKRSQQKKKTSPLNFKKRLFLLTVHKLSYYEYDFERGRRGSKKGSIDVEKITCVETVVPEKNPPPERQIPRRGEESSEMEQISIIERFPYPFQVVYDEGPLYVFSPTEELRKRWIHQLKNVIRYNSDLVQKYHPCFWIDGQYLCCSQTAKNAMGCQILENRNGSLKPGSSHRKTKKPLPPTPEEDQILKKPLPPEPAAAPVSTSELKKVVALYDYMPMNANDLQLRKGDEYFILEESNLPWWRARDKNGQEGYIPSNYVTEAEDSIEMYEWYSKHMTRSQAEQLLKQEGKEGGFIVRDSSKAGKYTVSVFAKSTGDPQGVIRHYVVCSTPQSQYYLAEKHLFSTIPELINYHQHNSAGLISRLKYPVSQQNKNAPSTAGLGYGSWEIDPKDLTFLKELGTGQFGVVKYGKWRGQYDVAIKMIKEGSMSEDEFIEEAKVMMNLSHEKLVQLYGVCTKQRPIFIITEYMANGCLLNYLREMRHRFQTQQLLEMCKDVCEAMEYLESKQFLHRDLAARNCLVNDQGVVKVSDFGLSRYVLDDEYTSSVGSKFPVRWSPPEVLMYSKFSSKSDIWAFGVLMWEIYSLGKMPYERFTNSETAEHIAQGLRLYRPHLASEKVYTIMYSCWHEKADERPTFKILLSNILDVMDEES

| SMILES | Thalf (min) Mouse [1] | DNAUC (Mouse absorption test) | IC50 (OCI-LY10 cells) | Thalf (min) Human [2] | DC50 (BTK) | IC50 (Mino cells) | DNAUC (Rat absorption test) |
| --- | --- | --- | --- | --- | --- | --- | --- |
| NC(=O)c1nnc(N2CCCCC2)nc1Nc1ccc(C2CCN(CC3CCN(c4ccc5c(c4)C(=O)N(C4CCC(=O)NC4=O)C5=O)C3)CC2)cc1 (centres unmarked) [Compound 001, 5-((4-(1-((1-(2-(2,6-dioxopiperidin-3-yl)-1,3-dioxoisoindolin-5-yl)pyrrolidin-3-yl)methyl)piperidin-4-yl)phenyl)amino)-3-(piperidin-1-yl)-1,2,4-triazine-6-carboxamide] | 47.13 min | 2300 AUC (h*ng/mL)/dose (mg/kg) | 3 nM | 71.37 min | < 10 nM | 5.5 nM |  |
| NC(=O)c1nnc(N2CCCCC2)nc1Nc1ccc(C2CCN(CC3CCN(c4ccc5c(c4)C(=O)N(C4CCC(=O)NC4=O)C5=O)C3)CC2)c(F)c1 (centres unmarked) [Compound 002, 5-((4-(1-((1-(2-(2,6-dioxopiperidin-3-yl)-1,3-dioxoisoindolin-5-yl)pyrrolidin-3-yl)methyl)piperidin-4-yl)-3-fluorophenyl)amino)-3-(piperidin-1-yl)-1,2,4-triazine-6-carboxamide] | 54 min | 2223 AUC (h*ng/mL)/dose (mg/kg) |  | 120 min | < 10 nM |  | 252 AUC (h*ng/mL)/dose (mg/kg) |
| NC(=O)c1nnc(N2CCCCC2)nc1Nc1ccc(N2CCN(CC3CCN(c4ccc5c(c4)C(=O)N(C4CCC(=O)NC4=O)C5=O)C3)CC2)c(F)c1 (centres unmarked) [Compound 003, 5-((4-(4-((1-(2-(2,6-dioxopiperidin-3-yl)-1,3-dioxoisoindolin-5-yl)pyrrolidin-3-yl)methyl)piperazin-1-yl)-3-fluorophenyl)amino)-3-(piperidin-1-yl)-1,2,4-triazine-6-carboxamide] |  | 1648 AUC (h*ng/mL)/dose (mg/kg) |  |  | < 10 nM |  | 456 AUC (h*ng/mL)/dose (mg/kg) |
| NC(=O)c1nnc(N2CCCCC2)nc1Nc1ccc(N2CCC(CN3CCN(c4cc5c(cc4F)C(=O)N(C4CCC(=O)NC4=O)C5=O)CC3)CC2)c(F)c1 (centres unmarked) [Compound 045, 5-((4-(4-((4-(2-(2,6-dioxopiperidin-3-yl)-6-fluoro-1,3-dioxoisoindolin-5-yl)piperazin-1-yl)methyl)piperidin-1-yl)-3-fluorophenyl)amino)-3-(piperidin-1-yl)-1,2,4-triazine-6-carboxamide] | 120 min | 1686 AUC (h*ng/mL)/dose (mg/kg) |  | 38 min | < 10 nM | 3.91 nM | 716 AUC (h*ng/mL)/dose (mg/kg) |

From patent US20260167620A1, “MULTIFUNCTIONAL COMPOUND CAPABLE OF DEGRADING BTK KINASE, AND COMPOSITION AND USE” (HANGZHOU HEALZEN THERAPEUTICS CO., LTD., priority 2021, published 2026)
